± gives the expanded uncertainty stated by the source.
Conditions: 298.15 K; 101.33 kPa; Liquid

Structure (SMILES)	mass density [kg/m3]
ClCCCl [1,2-dichloroethane]	1246.34 ± 0.6
ClCCBr [1-bromo-2-chloroethane]	1727.01 ± 2.2
ClCBr [bromochloromethane]	1924.55 ± 1.9
BrCBr [dibromomethane]	2478.36 ± 3.1
CCCO [propan-1-ol]	799.74 ± 0.49

Source: the NIST ThermoML archive (doi:10.1016/j.jct.2004.07.012)
